Results published in US20060099676A1, “Mammalian genes involved in rapamycin resistance and tumorgenesis: rapr6 genes” (priority 2002, published 2006).

System: N2a cells
Experiment: MTT proliferation assay: rapamycin mediated cell growth inhibition of N2a cells
Assay type: cell-based, mouse
Settings: FIG. 7
Description: In a preferred embodiment, an MTT proliferation assay (see, e.g., van de Loosdrechet, et al., 1994, J. Immunol. Methods 174: 311-320; Ohno et al., 1991, J. Immunol. Methods 145:199-203; Ferrari et al., 1990, J. Immunol. Methods 131: 165-172; Alley et al., 1988, Cancer Res. 48: 589-601; Carmichael et al., 1987, Cancer Res. 47:936-942; Gerlier et al., 1986, J. Immunol. Methods 65:55-63; Mosmann, 1983, J. Immunological Methods 65:55-63) is used to screen for a candidate agent in conjunction with rapamycin to inhibit the growth of rapamycin resistant cells. The cells are treated with chosen concentrations of the candidate agent and rapamycin for 4 to 72 hours. The cells are then incubated with a suitable amount of 3-(4,5-dimethylthiazol-2-yl)-2,5-diphenyitetrazoiium bromide (MTT) for 1-8 hours such that viable cells convert MTT into an intracellular deposit of insoluble formazan. After removing the excess MTT contained in the supernatant, a suitable MTT solvent, e.g., a DMSO solution, is added to dissolved the formazan. The concentration of […], which is proportional to the number of viable cells, is then measured by determining the optical density at 570 nm. A plurality of different concentrations of the candidate agent can be assayed to allow the determination of the concentrations of the candidate agent and rapamycin which causes 50% inhibition. […]

With `CO[C@H]1C[C@@H]2CC[C@@H](C)[C@@](O)(O2)C(=O)C(=O)N2CCCC[C@H]2C(=O)O[C@H]([C@H](C)C[C@@H]2CC[C@@H](O)[C@H](OC)C2)CC(=O)[C@H](C)/C=C(\C)[C@@H](O)[C@@H](OC)C(=O)[C@H](C)C[C@H](C)/C=C/C=C/C=C/1C` [rapamycin, 9,10,12,13,14,21,22,23,24,25,26,27, 32,33,34,34a-hexadecahydro-9,27-dihydroxy-3-[2-(4-hydroxy-3-methoxycyclohexyl)-1-methylethyl]-10,21-dimethoxy-6,8,12,14,20,26-hexamethyl-23,27-epoxy-3H-pyrido[2,1-c][1,4]oxaazacyclohentricontine-1,5,11,28,29(4H,6H,31H)-pentone] the “rapamycin concentration at which the growth of N2a cells is completely inhibited” value (N2a cell line) was at least 1 µM and the “concentration at which N2a cells are sensitive to rapamycin mediated cell growth inhibition” value (mouse neuroblastoma N2a cells, MTT assay) was 10 nM.
